Assay results: PubChem BioAssay (NCI)
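Briefly, cells in 96-well plates were exposed to five compound concentrations for 48 h, and endpoints were estimated by linear interpolation. The concentration for 50% growth inhibition is given as GI50. TGI: concentration producing complete growth inhibition.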

Tests used:
Test in all cases: inhibition of tumour cell growth, NCI panel, 48 h
786-0 renal = test system: 786-0 renal
A498 renal = test system: A498 renal
A549 NSCLC = test system: A549 NSCLC
ACHN renal = test system: ACHN renal
BT-549 breast = test system: BT-549 breast
CCRF-CEM leukemia = test system: CCRF-CEM leukemia
COLO 205 colon = test system: COLO 205 colon
DU-145 prostate = test system: DU-145 prostate
EKVX NSCLC = test system: EKVX NSCLC
HCC-2998 colon = test system: HCC-2998 colon
HCT-116 colon = test system: HCT-116 colon
HCT-15 colon = test system: HCT-15 colon
HL-60(TB) leukemia = test system: HL-60(TB) leukemia
HOP-62 NSCLC = test system: HOP-62 NSCLC
HOP-92 NSCLC = test system: HOP-92 NSCLC
HS 578T breast = test system: HS 578T breast
HT29 colon = test system: HT29 colon
IGROV1 ovarian = test system: IGROV1 ovarian
K-562 leukemia = test system: K-562 leukemia
KM12 colon = test system: KM12 colon
LOX IMVI melanoma = test system: LOX IMVI melanoma
MALME-3M melanoma = test system: MALME-3M melanoma
MCF7 breast = test system: MCF7 breast
MDA-MB-231 breast = test system: MDA-MB-231 breast
MDA-MB-435 = test system: MDA-MB-435
MOLT-4 leukemia = test system: MOLT-4 leukemia
NCI-H226 lung = test system: NCI-H226 lung
NCI-H23 lung = test system: NCI-H23 lung
NCI-H460 lung = test system: NCI-H460 lung
NCI-H522 lung = test system: NCI-H522 lung
NCI/ADR-RES ovarian = test system: NCI/ADR-RES ovarian
OVCAR-3 ovarian = test system: OVCAR-3 ovarian
OVCAR-4 ovarian = test system: OVCAR-4 ovarian
OVCAR-5 ovarian = test system: OVCAR-5 ovarian
OVCAR-8 ovarian = test system: OVCAR-8 ovarian
PC-3 prostate = test system: PC-3 prostate
RPMI-8226 leukemia = test system: RPMI-8226 leukemia
RXF 393 renal = test system: RXF 393 renal
SF-268 CNS = test system: SF-268 CNS
SF-295 CNS = test system: SF-295 CNS
SF-539 CNS = test system: SF-539 CNS
SK-MEL-2 melanoma = test system: SK-MEL-2 melanoma
SK-MEL-28 melanoma = test system: SK-MEL-28 melanoma
SK-MEL-5 melanoma = test system: SK-MEL-5 melanoma
SK-OV-3 ovarian = test system: SK-OV-3 ovarian
SN12C renal = test system: SN12C renal
SNB-19 CNS = test system: SNB-19 CNS
SNB-75 CNS = test system: SNB-75 CNS
SR leukemia = test system: SR leukemia
SW-620 colon = test system: SW-620 colon
T-47D breast = test system: T-47D breast
TK-10 renal = test system: TK-10 renal
U251 CNS = test system: U251 CNS
UACC-257 melanoma = test system: UACC-257 melanoma
UACC-62 melanoma = test system: UACC-62 melanoma
UO-31 renal = test system: UO-31 renal

In the case of `Cc1ccc(-c2cc(C(=O)N3N=C(c4ccc(N)cc4)CC3c3ccc(Cl)cc3)c3ccccc3n2)cc1` (configuration not stated), the GI50 (786-0 renal) is reported as 4.22 µM, the TGI (786-0 renal) is reported as > 100 µM and the GI50 (A498 renal) is reported as 1.64 µM. The TGI (A498 renal) was 6.5 µM, the GI50 (A549 NSCLC) was 4.79 µM and the TGI (A549 NSCLC) was > 100 µM. The GI50 (ACHN renal) was 4.19 µM, the TGI (ACHN renal) was > 100 µM and the GI50 (BT-549 breast) was 3.92 µM. For the same compound, the TGI (BT-549 breast) was > 100 µM, the GI50 (CCRF-CEM leukemia) was 4.53 µM and the TGI (CCRF-CEM leukemia) was > 100 µM. For the same compound, the GI50 (COLO 205 colon) was 2.8 µM, the TGI (COLO 205 colon) was 9.48 µM and the GI50 (DU-145 prostate) was 3.68 µM. The TGI (DU-145 prostate) was > 100 µM, the GI50 (EKVX NSCLC) was 3.99 µM and the TGI (EKVX NSCLC) was > 100 µM. The GI50 (HCC-2998 colon) was 4.28 µM, the TGI (HCC-2998 colon) was > 100 µM and the GI50 (HCT-116 colon) was 3.18 µM. For the same compound, the TGI (HCT-116 colon) was > 100 µM, the GI50 (HCT-15 colon) was 3.33 µM and the TGI (HCT-15 colon) was > 100 µM. For the same compound, the GI50 (HL-60(TB) leukemia) was 3.49 µM, the TGI (HL-60(TB) leukemia) was > 100 µM and the GI50 (HOP-62 NSCLC) was 4.62 µM. For the same compound, the TGI (HOP-62 NSCLC) was > 100 µM, the GI50 (HOP-92 NSCLC) was 4.1 µM and the TGI (HOP-92 NSCLC) was 92.3 µM. The GI50 (HS 578T breast) was 4.68 µM, the TGI (HS 578T breast) was > 100 µM and the GI50 (HT29 colon) was 3.35 µM. For the same compound, the TGI (HT29 colon) was > 100 µM, the GI50 (IGROV1 ovarian) was 6.48 µM and the TGI (IGROV1 ovarian) was > 100 µM. The GI50 (K-562 leukemia) was 3.09 µM, the TGI (K-562 leukemia) was > 100 µM and the GI50 (KM12 colon) was 3.46 µM. The TGI (KM12 colon) was > 100 µM, the GI50 (LOX IMVI melanoma) was 4 µM and the TGI (LOX IMVI melanoma) was > 100 µM. For the same compound, the GI50 (MALME-3M melanoma) was > 100 µM, the TGI (MALME-3M melanoma) was > 100 µM and the GI50 (MCF7 breast) was 2.53 µM. The TGI (MCF7 breast) was > 100 µM, the GI50 (MDA-MB-231 breast) was 3.94 µM and the TGI (MDA-MB-231 breast) was 92.2 µM. For the same compound, the GI50 (MDA-MB-435) was 1 µM, the TGI (MDA-MB-435) was 3.66 µM and the GI50 (MOLT-4 leukemia) was 3.23 µM. The TGI (MOLT-4 leukemia) was > 100 µM, the GI50 (NCI-H226 lung) was 6.47 µM and the TGI (NCI-H226 lung) was > 100 µM. The GI50 (NCI-H23 lung) was 5.02 µM, the TGI (NCI-H23 lung) was > 100 µM and the GI50 (NCI-H460 lung) was 3.51 µM. The TGI (NCI-H460 lung) was > 100 µM, the GI50 (NCI-H522 lung) was 0.622 µM and the TGI (NCI-H522 lung) was 4.21 µM. The GI50 (NCI/ADR-RES ovarian) was 2.54 µM, the TGI (NCI/ADR-RES ovarian) was > 100 µM and the GI50 (OVCAR-3 ovarian) was 2.98 µM. For the same compound, the TGI (OVCAR-3 ovarian) was 36.6 µM, the GI50 (OVCAR-4 ovarian) was 4.71 µM and the TGI (OVCAR-4 ovarian) was > 100 µM. For the same compound, the GI50 (OVCAR-5 ovarian) was 8.43 µM, the TGI (OVCAR-5 ovarian) was > 100 µM and the GI50 (OVCAR-8 ovarian) was 5.25 µM. For the same compound, the TGI (OVCAR-8 ovarian) was > 100 µM, the GI50 (PC-3 prostate) was 3.4 µM and the TGI (PC-3 prostate) was > 100 µM. For the same compound, the GI50 (RPMI-8226 leukemia) was 4.1 µM, the TGI (RPMI-8226 leukemia) was > 100 µM and the GI50 (RXF 393 renal) was 1.63 µM. The TGI (RXF 393 renal) was 7.06 µM, the GI50 (SF-268 CNS) was 4.09 µM and the TGI (SF-268 CNS) was > 100 µM. For the same compound, the GI50 (SF-295 CNS) was 3.13 µM, the TGI (SF-295 CNS) was > 100 µM and the GI50 (SF-539 CNS) was 2.43 µM. For the same compound, the TGI (SF-539 CNS) was 8.1 µM, the GI50 (SK-MEL-2 melanoma) was 3.81 µM and the TGI (SK-MEL-2 melanoma) was > 100 µM. The GI50 (SK-MEL-28 melanoma) was 6.23 µM, the TGI (SK-MEL-28 melanoma) was > 100 µM and the GI50 (SK-MEL-5 melanoma) was 2.5 µM. For the same compound, the TGI (SK-MEL-5 melanoma) was > 100 µM, the GI50 (SK-OV-3 ovarian) was 4.94 µM and the TGI (SK-OV-3 ovarian) was > 100 µM. For the same compound, the GI50 (SN12C renal) was 6.84 µM, the TGI (SN12C renal) was > 100 µM and the GI50 (SNB-19 CNS) was 6.51 µM. The TGI (SNB-19 CNS) was > 100 µM, the GI50 (SNB-75 CNS) was 1.41 µM and the TGI (SNB-75 CNS) was 6.68 µM. For the same compound, the GI50 (SR leukemia) was 3.29 µM, the TGI (SR leukemia) was > 100 µM and the GI50 (SW-620 colon) was 4.24 µM. The TGI (SW-620 colon) was > 100 µM, the GI50 (T-47D breast) was 2.73 µM and the TGI (T-47D breast) was > 100 µM. For the same compound, the GI50 (TK-10 renal) was 8.51 µM, the TGI (TK-10 renal) was > 100 µM and the GI50 (U251 CNS) was 4.51 µM. For the same compound, the TGI (U251 CNS) was > 100 µM, the GI50 (UACC-257 melanoma) was 33.7 µM and the TGI (UACC-257 melanoma) was > 100 µM. For the same compound, the GI50 (UACC-62 melanoma) was 2.06 µM, the TGI (UACC-62 melanoma) was > 100 µM and the GI50 (UO-31 renal) was 2.2 µM. For the same compound, the TGI (UO-31 renal) was > 100 µM.
